Measurements: paper PMC11623990, “Deferasirox and Ciprofloxacin: Potential Ternary Complex Formation With Ferric Iron, Pharmacodynamic, and Pharmacokinetic Interactions” (The Scientific World Journal, 2024)
In brackets after ≈: the same amount, converted by molar mass.

Columns and labels:
[1] = Saturation solubility, shake-flask with HPLC; format: physicochemical; details: (±SD) in brackets, n = 3
Protocol: The molar ratio of association between iron and either of the drugs was determined by completely dissolving 2.7 mg of the metal complex products in 10 mL of a mixture of butanol, DMSO, and DMF (3:5:2). Solutions were then diluted twice in DMSO and five times in mobile phase before being injected into HPLC. The developed HPLC method was validated for this purpose and for the determination of solubility and partition coefficients (PCs). The optimum conditions developed comprised a phenyl column (4.6 mm ID; 150 mm·L; Thermo Scientific Hypersil) with a mobile phase consisting of 34% acetonitrile in a 50 mM phosphate buffer. The mobile phase mixture contained 0.032% citric acid, 0.02% EDTA, 0.032% hydroxylamine HCl, and 0.07% trimethylamine, with the overall pH adjusted to 3.7. The mobile phase was delivered isocratically at a flow rate of 1.2 mL/min, and chromatograms monitored at 290 nm.
(§1) Excess solid of each compound to be tested was added to 6 mL of either phosphate buffer (pH 6.8), acetate buffer (pH 4.5), or 0.1 M HCl and left on a shaker water bath (37°C) for 24 h. One mL was centrifuged for 10 min, and 100 μL of the supernatant was properly diluted with the mobile phase (1:4) before being injected onto HPLC. For determination of octanol/H2O PC, 0.6 mL of the supernatant solution was transferred to a new tube containing 2 mL of octanol. Tubes containing the two layers of octanol and aqueous phase were kept on shaker water bath (37°C) for 24 h. Aliquots of aqueous layer were properly diluted with the mobile phase before being injected onto HPLC. The concentration of the drug in octanol layer was calculated by difference.

[2] = Level of DFX in plasma of iron-overloaded rats (HPLC); format: in vivo; details: male, Wistar, rat, (SD), N = 8
Protocol: (§2) Ethical approval of the study protocol was obtained from the Institutional Review Board at the University of Jordan (Approval No. 47–2022) on 17th May 2022 (document No. 19/2022/289). Throughout the study, all animals were housed, fed, and treated in accordance with The University of Jordan ethical guidelines for animal protection. The animal house of the University of Jordan, which is equipped with proper ventilation and temperature control (25 ± 4°C) systems, was utilized for the study. Each animal was placed in a separate standard cage. Sixteen male Wistar rats (6 weeks old, average weight 220 ± 10 g) were subjected to an iron-enriched diet containing 2.5% carbonyl iron according to Ackerman et al. for 6 weeks. Another group of eight rats (control group) was subjected to an ordinary pellet diet for the same period. The 16 animals with iron fortified diets were then separated into two groups of eight: the DFX group which received DFX alone and the DFX-CP group which received DFX plus CP, for 6 days. Drugs were given orally through proper mixing with food so that on average, each animal would ingest 30 mg/kg DFX daily incorporated within 15 gm of dried food. For the DFX-CP group, the 15 g dried food contained CP equivalent to 30 mg/kg of animal weight. Blood samples were collected from animals using the orbital venous plexus bleeding method with the aid of ether anesthesia in special EDTA tubes on days 1, 3, and 6 after initiation of the drug treatment. Blood samples were centrifuged, and plasma was collected in Eppendorf tubes and kept at −80°C until time of analysis for DFX. On the sixth day of the treatment, animals were sacrificed by cervical dislocation with the aid of mild anesthesia. […]
DFX was determined in plasma and GIT content using a slightly modified HPLC method from that employed in the solubility studies. […]
The method was properly validated for selectivity, precision, accuracy, and linearity. […] However, CP could not be determined by this method as it was coeluted early with other components of the plasma. […]

[3] = tested on: iron-overloaded rat model; assay: Histological assessment of organs (H&E and Pearl's stain for iron deposits); format: in vivo, Wistar rats
Protocol: as §2, with “weight.” for “weight. Blood samples were collected from animals using the orbital venous plexus bleeding method with the aid of ether anesthesia in special EDTA tubes on days 1, 3, and 6 after initiation of the drug treatment. Blood samples were centrifuged, and plasma was collected in Eppendorf tubes and kept at −80°C until time of analysis for DFX. On the sixth day of the treatment, animals were sacrificed by cervical dislocation with the aid of mild anesthesia.”

[4] = Apparent octanol/H2O partition coefficient; format: physicochemical; details: (±SD) in brackets, n = 3
Protocol: as §1

[5] = design: method as in PMID 10508341, doi:10.1002/ejic.200400363; details: cited from earlier work
[6] = design: method as in PMID 10508341, doi:10.1002/ejic.200400363; details: practically measured; cited from earlier work
[7] = tested on: iron-overloaded rat model; assay: Level of iron in blood and other tissues determined by AAS; format: in vivo, Wistar rats; details: (SD), n = 8
Protocol: Ethical approval of the study protocol was obtained from the Institutional Review Board at the University of Jordan (Approval No. 47–2022) on 17th May 2022 (document No. 19/2022/289). Throughout the study, all animals were housed, fed, and treated in accordance with The University of Jordan ethical guidelines for animal protection. The animal house of the University of Jordan, which is equipped with proper ventilation and temperature control (25 ± 4°C) systems, was utilized for the study. Each animal was placed in a separate standard cage. Sixteen male Wistar rats (6 weeks old, average weight 220 ± 10 g) were subjected to an iron-enriched diet containing 2.5% carbonyl iron according to Ackerman et al. for 6 weeks. Another group of eight rats (control group) was subjected to an ordinary pellet diet for the same period. The 16 animals with iron fortified diets were then separated into two groups of eight: the DFX group which received DFX alone and the DFX-CP group which received DFX plus CP, for 6 days. Drugs were given orally through proper mixing with food so that on average, each animal would ingest 30 mg/kg DFX daily incorporated within 15 gm of dried food. For the DFX-CP group, the 15 g dried food contained CP equivalent to 30 mg/kg of animal weight. Blood samples were collected from animals using the orbital venous plexus bleeding method with the aid of ether anesthesia in special EDTA tubes on days 1, 3, and 6 after initiation of the drug treatment. Blood samples were centrifuged, and plasma was collected in Eppendorf tubes and kept at −80°C until time of analysis for DFX. On the sixth day of the treatment, animals were sacrificed by cervical dislocation with the aid of mild anesthesia. Liver, heart, kidney, spleen, and the whole gastrointestinal tract (GIT) of all animals were collected and immediately stored in 10% formalin solution for further assessment.
Accurately weighed samples of the tissues to be determined (90–120 mg for liver, and 50–80 mg for heart and spleen) were digested in 1.5 mL of concentrated H2SO4 at 60°C for two days. Samples were vortex mixed and initially diluted 12 times using 2M HCl and filtered using a 0.45 μm PTFE syringe filters. Further dilutions were made if necessary and as appropriate upon sample measurement. Samples were read on Aurora AI1200 atomic absorption spectrophotometer at the specific wavelength of iron. FeCl3 standard solution 1000 μg/mL (Scharlau, Spain) was used to prepare calibration curve solutions. Proper blank samples were prepared along with the calibration curve of standard iron solution. Linearity was established in the range 0.1–8 µg/mL, with a linearity coefficient > 0.99. A typical calibration equation was […]. For statistical analysis, the potential existence of a significant difference between the averages of two groups, a t-test was employed using GraphPad software.

O=C(O)c1ccc(-n2nc(-c3ccccc3O)nc2-c2ccccc2O)cc1 [DFX, Deferasirox]
solubility at 24 h ([1]; 0.1 M HCl, pH 1.2, pH 1.2 (0.1 M HCl), 37°C): 9.9 µg/mL (≈ 26.5 µM)
solubility at 24 h ([1]; acetate buffer, pH 4.5, pH 4.5 acetate buffer, 37°C): 19.1 µg/mL (≈ 51.2 µM)
Solubility ([1]; pH 6.8 phosphate buffer, 37°C, 24 h): 140.8 (1.9) μg/mL
solubility at 24 h ([1]; phosphate buffer, 37 °C, pH 6.8, aqueous buffer, thermodynamic from solid, pH 6.8 phosphate buffer): 140 µg/mL (≈ 375 µM)
concentration at 1 day ([2]; 1 day after start of drugs in food (30 mg/kg daily oral)): 1200 ng/mL
concentration at 3 day ([2]; 3 days after start of drugs in food (30 mg/kg daily oral)): 10700 ng/mL
concentration at 6 day ([2]; 6 days after start of drugs in food (30 mg/kg daily oral)): 9700 ng/mL
Iron deposition in spleen tissue (Pearl's stain) ([3]; compared with the combined treatment group and the control group, seen in six out of eight animals): clearly higher levels of deposited iron
Iron deposition in liver tissue (Pearl's stain) ([3]; compared with the combined treatment group, seen in six of eight animals): higher level of iron deposition
Apparent partition coefficient ([4]; pH 4.5, 37°C): 2.1 (5.7)
Apparent partition coefficient ([4]; pH 6.8, 37°C): 7.9 (1.11)
Affinity of DFX to Fe^2+ [5]: very low affinity
Formation constants of DFX to Fe^3+ [6]: 10^37-10^38
Content of iron in dried tissue ([7]; dried blood, 3 days after initiation of chelation therapy): 4.73 (0.2) mg/100g of tissue
Content of iron in dried tissue ([7]; dried blood, 6 days after initiation of chelation therapy): 4.94 (0.2) mg/100g of tissue
Content of iron in dried tissue ([7]; heart, after 6 days of treatment): 50.3 (2.7) mg/100g of tissue
Content of iron in dried tissue ([7]; liver, after 6 days of treatment): 162.6 (10.1) mg/100g of tissue
Content of iron in dried tissue ([7]; spleen, after 6 days of treatment): 168.8 (9.8) mg/100g of tissue
